Measurements: EPA's CvTdb concentration-time database

Legend:
Assay in all cases: concentration in plasma after dosing
Rat [1] = settings: 0.5 h; dosed: Oxymetholone; 20 mg/kg; iv; Male; F344/N
Rat [2] = settings: 2 h; dosed: Oxymetholone; 20 mg/kg; iv; Male; F344/N
Rat [3] = settings: 10 min; dosed: Oxymetholone; 120 mg/kg; oral; Male; F344/N
Rat [4] = settings: 2 h; dosed: Oxymetholone; 120 mg/kg; oral; Female; F344/N
Rat [5] = settings: 12 h; dosed: Oxymetholone; 120 mg/kg; oral; Male; F344/N
Rat [6] = settings: 1 h; dosed: Oxymetholone; 120 mg/kg; oral; Male; F344/N
Rat [7] = settings: 5 min; dosed: Oxymetholone; 20 mg/kg; iv; Male; F344/N
Rat [8] = settings: 1 h; dosed: Oxymetholone; 20 mg/kg; iv; Male; F344/N
Rat [9] = settings: 2 h; dosed: Oxymetholone; 20 mg/kg; iv; Male; F344/N; remark: listed apart in the source
Rat [10] = settings: 5 min; dosed: Oxymetholone; 20 mg/kg; iv; Male; F344/N; remark: listed apart in the source
Rat [11] = settings: 3 h; dosed: Oxymetholone; 120 mg/kg; oral; Male; F344/N
Rat [12] = settings: 2 h; dosed: Oxymetholone; 30 mg/kg; oral; Male; F344/N
Rat [13] = settings: 40 min; dosed: Oxymetholone; 30 mg/kg; oral; Male; F344/N
Rat [14] = settings: 10 min; dosed: Oxymetholone; 120 mg/kg; oral; Male; F344/N; remark: listed apart in the source
Rat [15] = settings: 0.5 h; dosed: Oxymetholone; 20 mg/kg; iv; Male; F344/N; remark: listed apart in the source
Rat [16] = settings: 2 h; dosed: Oxymetholone; 30 mg/kg; oral; Male; F344/N; remark: listed apart in the source
Rat [17] = settings: 1 h; dosed: Oxymetholone; 20 mg/kg; iv; Male; F344/N; remark: listed apart in the source
Rat [18] = settings: dosed: Oxymetholone, F344/N
Rat [19] = settings: 4 h; dosed: Oxymetholone; 120 mg/kg; oral; Male; F344/N
Rat [20] = settings: 5 h; dosed: Oxymetholone; 120 mg/kg; oral; Male; F344/N
Rat [21] = settings: 2 h; dosed: Oxymetholone; 120 mg/kg; oral; Male; F344/N
Rat [22] = settings: 10 min; dosed: Oxymetholone; 20 mg/kg; iv; Male; F344/N
Rat [23] = settings: 40 min; dosed: Oxymetholone; 30 mg/kg; oral; Male; F344/N; remark: listed apart in the source
Rat [24] = settings: 2 h; dosed: Oxymetholone; 30 mg/kg; oral; Female; F344/N
Rat [25] = settings: 8 h; dosed: Oxymetholone; 120 mg/kg; oral; Male; F344/N
Rat [26] = settings: 2 h; dosed: Oxymetholone; 120 mg/kg; oral; Male; F344/N; remark: listed apart in the source
Rat [27] = settings: 4 h; dosed: Oxymetholone; 20 mg/kg; iv; Male; F344/N
Rat [28] = settings: 2 h; dosed: Oxymetholone; 120 mg/kg; oral; Female; F344/N; remark: listed apart in the source
Rat [29] = settings: 4 h; dosed: Oxymetholone; 30 mg/kg; oral; Male; F344/N
Rat [30] = settings: 6 h; dosed: Oxymetholone; 120 mg/kg; oral; Male; F344/N
Rat [31] = settings: 10 min; dosed: Oxymetholone; 20 mg/kg; iv; Male; F344/N; remark: listed apart in the source
Rat [32] = settings: 1 h; dosed: Oxymetholone; 120 mg/kg; oral; Male; F344/N; remark: listed apart in the source
Rat [33] = settings: 4 h; dosed: Oxymetholone; 30 mg/kg; oral; Male; F344/N; remark: listed apart in the source
Rat [34] = settings: 8 h; dosed: Oxymetholone; 120 mg/kg; oral; Male; F344/N; remark: listed apart in the source
Rat [35] = settings: 40 min; dosed: Oxymetholone; 120 mg/kg; oral; Male; F344/N
Rat [36] = settings: 40 min; dosed: Oxymetholone; 120 mg/kg; oral; Male; F344/N; remark: listed apart in the source
Rat [37] = settings: 2 h; dosed: Oxymetholone; 30 mg/kg; oral; Female; F344/N; remark: listed apart in the source
Rat [38] = settings: 20 min; dosed: Oxymetholone; 20 mg/kg; iv; Male; F344/N
Rat [39] = settings: 3 h; dosed: Oxymetholone; 120 mg/kg; oral; Male; F344/N; remark: listed apart in the source
Rat [40] = settings: 20 min; dosed: Oxymetholone; 20 mg/kg; iv; Male; F344/N; remark: listed apart in the source

C[C@]12C/C(=C/O)C(=O)C[C@@H]1CC[C@@H]1[C@@H]2CC[C@@]2(C)[C@H]1CC[C@]2(C)O [Oxymetholone]
Settings	concentration in plasma [ng/mL]
Rat [1]	2190
Rat [2]	914
Rat [3]	666
Rat [4]	918
Rat [5]	255
Rat [6]	739
Rat [7]	20300
Rat [8]	1490
Rat [9]	846
Rat [10]	14400
Rat [11]	1080
Rat [12]	875
Rat [13]	641
Rat [14]	319
Rat [15]	1720
Rat [16]	711
Rat [17]	881
Rat [19]	910
Rat [20]	600
Rat [21]	1330
Rat [22]	6510
Rat [23]	629
Rat [24]	231
Rat [25]	203
Rat [26]	1610
Rat [27]	376
Rat [28]	1020
Rat [29]	466
Rat [30]	462
Rat [31]	8040
Rat [32]	952
Rat [33]	316
Rat [34]	339
Rat [35]	733
Rat [36]	675
Rat [37]	276
Rat [38]	3010
Rat [39]	1070
Rat [40]	2210

concentration in plasma [ng/mL], Rat [18]
Settings	Female	Male
0.5 h, 20 mg/kg, iv	–	2070
1 h, 20 mg/kg, iv	–	1210
1 h, 120 mg/kg, oral	–	999
1.5 h, 120 mg/kg, oral	–	616
2 h, 20 mg/kg, iv	–	619
2 h, 30 mg/kg, oral	266	875
2 h, 120 mg/kg, oral	687	1130
3 h, 120 mg/kg, oral	–	925
4 h, 20 mg/kg, iv	–	496
4 h, 30 mg/kg, oral	–	427
4 h, 120 mg/kg, oral	–	977
5 h, 120 mg/kg, oral	–	527
5 min, 20 mg/kg, iv	–	20600
6 h, 120 mg/kg, oral	–	806
8 h, 120 mg/kg, oral	–	428
10 min, 20 mg/kg, iv	–	5510
10 min, 120 mg/kg, oral	–	626
12 h, 120 mg/kg, oral	–	208
20 min, 20 mg/kg, iv	–	4270
20 min, 120 mg/kg, oral	–	788
40 min, 30 mg/kg, oral	–	564
40 min, 120 mg/kg, oral	–	684
